# Measured values published in US7897340B2, “Use of tumor susceptibilty gene 101 (TSG 101) as a prognostic and diagnostic marker” (The Board of Regents of the University of Texas System, priority 2006, dated 2011).
# Assays:
# Assay type in all cases: cell-based, human
# CITED2 mRNA = CITED2 mRNA by RT-PCR in SKOV-3 cells; details: SKOV-3, 3 days following siRNA transfection
# Experimental: Total RNA was isolated from cells using Trizol reagent (Invitrogen), and concentration was determined by absorbance at 260 nm. Real-Time PCR analysis was carried out using fluorescent TSG101 primers on an Applied Biosystems Prism 7000 Sequence Detection System. RT-PCR was carried out for TSG101 and HIF-1α using 1 μg of isolated total RNA under the following parameters: 94° C. 1 min, 57° C. 1 min and 72° C. 1.5 min, 35 cycles. Primers used for RT-PCR were TSG10 forward 5′-[…]-3′ (SEQ ID NO: 1), reverse 5′-TTTCCTCC TTCATCCGCCATCTC-3′ (SEQ ID NO: 2), CITED2 forward 5′-[…]-3′ (SEQ ID NO: 3), reverse 5′-[…]-3′ (SEQ ID NO: 4), HIF-1a ? forward 5′-[…]-3′ (SEQ ID NO: 5), reverse 5′-[…]-3′ (SEQ ID NO: 6).
# (§1) A siRNA duplex specific for TSG101 (targeting TSG101 coding sequence 413-433) and a scrambled random control siRNA with matching GC content were obtained from Dharmacon. This specific TSG101 siRNA duplex (sense: CCUCCAGUCUUCUCUCGUCdTdT (SEQ ID NO: 7) and antisense: dTd[…] (SEQ ID NO: 8) have been successfully applied to suppress the expression of endogenous TSG101 in several high quality studies (Amit et al., 2004; Garrus et al., 2001; Hewitt et al., 2002; Ismaili et al., 2005). Transfection of the siRNAs was according to the manufacturer's instructions using Lipofectamine 2000 (Invitrogen).
# [1] = system: HIF-1α transcriptional activity; assay: HIF-1α GFP reporter assay (HRE-GFP) in SKOV-3 cells
# Experimental: Cells were plated at 1×10^5 in 3.5 cm wells and grown overnight at 37° C. The following day cells were transfected with 375 ng/well of either TSG101 or control siRNA duplex using Lipofectamine 2000. Cells were then passaged at 48 hrs post-transfection and used for subsequent experiments. The HIF-1α response element (HRE)-GFP reporter (a generous gift from Mark Dewhirst) was transfected into cells 48 hrs after transfection with siRNA reagents, and subsequently plated onto microscope cover slips. On the fifth day following siRNA transfection, cells on cover slips were rinsed in PBS and fixed in 2% paraformaldehyde for 15 min. Nuclear staining was carried out with DAPI (5 ng/ml) for 5 min, after which slides were mounted and observed using a fluorescence microscope (Olympus BX51) equipped with a Hamamatsu digital camera (C4742-95).
# To test the functional consequence of TSG101 knock-down mediated down-regulation of CITED2/HIF-1 ? HIF-1 ? transcriptional activity was examined using a HIF-1-inducible fluorescent reporter. This construct was created by splicing five copies of the hypoxia regulatory element (HRE) upstream of enhanced green fluorescent protein (GFP), which provided a convenient method for monitoring HIF-1 activity levels by following GFP expression using fluorescence microscopy (Moeller et al., 2004).
# CITED2 = CITED2 protein by immunoblotting in SKOV-3 cells; details: SKOV-3, immunoblotting
# Source text: Antigen-antibody complexes were detected by enhanced chemiluminescence (Pierce).
# as §1
# caspase 3 = assay: Caspase activity assay; details: SKOV-3 lysates, 6 days following transfection
# Experimental: SKOV-3 cells transfected with either control or TSG101 siRNA were grown in 10 cm plates to 70-80% confluence, then harvested by trypsinization, washed twice in PBS and once in wash buffer (100 mM HEPES pH 7.4, 0.5 mM EDTA, 1 mM DTT, 0.1 mM PMSF, 2 μg/ml leupeptin, 2 μg/ml pepstatin). The cells were lysed on ice for 30 min with frequent vortexing in 150 μl of lysis buffer (wash buffer plus 1% Triton-X100). Cell debris was removed by centrifugation at 16,000 g for 20 min at 4° C. Lysate protein concentration was determined by Bradford assay (Bio-Rad). Caspase 3 activity was measured using fluorogenic substrates […] that is specific for caspase 3. Release of free AFC was monitored using a Fluoroskan fluorescence microplate reader with excitation and emission set to 405 and 510 nm, correspondingly.
# SKOV-3 cells [2] = assay: Nuclear DNA condensation staining (Hoechst); details: SKOV-3, day 5 following siRNA transfection
# Experimental: 2-3×10^5 SKOV-3 cells were plated in 3 cm tissue culture plates containing polylysine coated coverslips, and transfected with either control or TSG101 siRNA. Cells on coverslips were stained 5 days post-transfection with Hoechst 22658 for 30 min, rinsed with PBS, and sealed onto glass slides. Nuclear DNA condensation was examined using a fluorescence microscope (Olympus BX51) equipped with a Hamamatsu digital camera (C4742-95).
# SKOV-3 cells [3] = assay: Cell growth by counting
# Experimental: FIGS. 11A-F show association of suppression of TSG101 expression with cell cycle arrest and growth inhibition. In FIG. 11A, SKOV-3 cells were transfected with TSG101 and control siRNAs and RNA and protein were isolated 48 hours post transfection. Levels of mRNA were determined by semiquantitative RT-PCR and protein levels were determined by immunoblotting, respectively. Similar results were obtained from more than 4 independent experiments. In FIG. 11B, TSG101 or control siRNA transfected cells were plated at 2.5×10^4 cells/well in 6 well plates and cell growth was determined by counting over successive days. Each data point represents the average of 3 wells. Control and TSG101 knockdown SKOV-3 cells were stained with propidium iodide and analyzed by FACS on day 4 (FIG. 11C) or day 6 (FIG. 11D) following transfection. Sub G1 cells are calculated as a supplemental population. In FIG. 11E, SKOV-3 cell lysates were obtained 6 days following transfection with control or TSG101 siRNA. Caspase activity was determined using the fluorogenic substrate DEVD-AFC. In FIG. 11F, control and TSG101 knockdown SKOV-3 cells on day 5 following siRNA transfection were stained using Hoechst 22658 and Nuclear condensation was observed on a fluorescent microscope. Cells with condensed/fragmented DNA were quantified from at least 8 images, and represented as a percentage of the total number of cells. […]
# [4] = system: TSG101 recruitment to the p21 promoter; assay: Chromatin immunoprecipitation (ChIP) assay with TSG101 antibody; details: SKOV-3, ChIP with TSG101 antibody, vs control siRNA
# Source text: Pelleted DNA was resuspended in TBE. […] ID NO: 11), reverse [NT] ID NO:12).
substance,measurement,setting,value
"TSG101 siRNA: siRNA duplex from Dharmacon targeting TSG101 coding sequence 413-433, SEQ ID NO: 7 and 8 (chain 1 CCUCCAGUCUUCUCUCGUCTT; chain 2 TTGGAGGUCAGAAGAGAGCAG; chemistry not fully specified; one strand is listed 3' to 5')",CITED2 mRNA expression,CITED2 mRNA,significantly down-regulated
same,fluorescent signal from GFP expression (HRE-GFP),"[1]; SKOV-3, fluorescence microscopy, 4 days post-transfection as printed",significantly decreased
same,GFP protein expression (HRE-GFP),"[1]; SKOV-3, immunoblotting",significantly decreased expression of GFP
same,cellular levels of CITED2 protein,CITED2,significantly reduced
same,caspase 3 activity,caspase 3,apparent increases
same,nuclear DNA condensation/fragmentation,SKOV-3 cells [2],apparent increases
same,cell number (cell growth),"SKOV-3 cells [3]; SKOV-3, counting over successive days, vs scrambled control siRNA",decrease dramatically in number beginning 5 days post transfection
same,"rate of cell growth, initial observations","SKOV-3 cells [3]; SKOV-3, up to 72 h posttransfection",no significant cellular effects on cell growth
same,recruitment of TSG101 to the p21 promoter,[4],dramatically reduced
